Reference: paper PMC11492426, “Design, synthesis, and biological evaluation of novel quinoline-based EGFR/HER-2 dual-target inhibitors as potential anti-tumor agents” (RSC Advances, 2024)

How the values were obtained:
[1] = Cell viability assay (MTT) on MCF-10A normal cells; format: cell-based; details: human, MCF-10A mammary gland epithelial normal cells, MCF-10A cells, four-day incubation
Experimental: The impact of compounds 3a–h and 5a–d on cell viability was evaluated using the human mammary (MCF-10A) gland epithelium normal cell line. The MTT assay was used to evaluate the cell viability of 3a–h and 5a–d after a four-day incubation period on MCF-10A cells.[46] Refer to Appendix A for more details.
The effect of new compounds 3a–h and 5a–d on cell viability was evaluated using the MCF-10A (human mammary gland epithelium) normal cell line.
4.2. Biological evaluation
4.2.1 Cell Viability assay (MTT assay)
MTT assay was performed to investigate the effect of the synthesized compounds on mammary epithelial cells (MCF-10A). The cells were propagated in medium consisting of Ham's F-12 medium/ Dulbecco's modified Eagle's medium (DMEM) (1:1) supplemented with 10% foetal calf serum, 2 mM glutamine, insulin (10 μg/mL), hydrocortisone (500 ng/mL) and epidermal growth factor (20 ng/mL). Trypsin ethylenediamine tetra acetic acid (EDTA) was used to passage the cells after every 2-3 days. 96-well flat-bottomed cell culture plates were used to seed the cells at a density of 10^4 cells mL-1. The medium was aspirated from all the wells of culture plates after 24 h followed by the addition of synthesized compounds (in 200 μL medium to yield a final concentration of 0.1% (v/v) dimethyl sulfoxide) into individual wells of the plates. Four wells were designated to a single compound. The plates were allowed to incubate at 37°C for 96 h. Afterwards, the medium was aspirated and 3-[4,5-dimethylthiazol-2-yl]-2,5-diphenyltetrazolium bromide (MTT) (0.4 mg/mL) in medium was added to each well and subsequently incubated for 3 h. The medium was aspirated and 150 μL dimethyl sulfoxide (DMSO) was added to each well. The plates were vortexed followed by the measurement of absorbance at 540 nm on a microplate reader. The results were presented as inhibition (%) of proliferation in contrast to controls comprising 0.1% DMSO.

[2] = test system: A-549 lung cancer cell line; assay: Antiproliferative assay, A-549; format: cell-based; details: Homo sapiens, A549; A-549 lung cancer cells; read-out: Antiproliferative activity IC50 ± SEM, A-549
[3] = test system: MCF-7 breast cancer cell line; assay: Antiproliferative assay, MCF-7; format: cell-based; details: Homo sapiens, MCF7; MCF-7 breast cancer cells; read-out: Antiproliferative activity IC50 ± SEM, MCF-7
[4] = test system: Panc-1 pancreatic cancer cell line; assay: Antiproliferative assay, Panc-1; format: cell-based; details: Homo sapiens; Panc-1 pancreatic cancer cells; read-out: Antiproliferative activity IC50 ± SEM, Panc-1
[5] = test system: HT-29 colon cancer cell line; assay: Antiproliferative assay, HT-29; format: cell-based; details: Homo sapiens; HT-29 colon cancer cells; read-out: Antiproliferative activity IC50 ± SEM, HT-29
[6] = test system: four human cancer cell lines (A-549, MCF-7, Panc-1, HT-29); assay: Antiproliferative assay, average over four cancer cell lines; format: cell-based; details: Homo sapiens, average IC50 over the four cancer cell lines
[7] = test system: Caspase-3; assay: Caspase-3 activation assay in MCF-7 cells; format: cell-based, human; details: for Caspase-3 Conc.: treated at IC50 concentration; for Caspase-3 Fold change: versus untreated control
[8] = test system: Caspase-8; assay: Caspase-8 activation assay in MCF-7 cells; format: cell-based, human; details: for Caspase-8 Conc.: treated at IC50 concentration; for Caspase-8 Fold change: versus untreated control
[9] = test system: Bax; assay: Bax activation assay in MCF-7 cells; format: cell-based, human; details: for Bax Conc.: treated at IC50 values; for Bax Fold change: versus untreated control
Experimental: This lysate was diluted in Standard Diluent Buffer over the range of the assay and measured for human active caspase-8 content. (Cells are Plated in a density of 1.2 – 1.8 × 10,000 cells/well in a volume of 100µl complete growth medium + 100 ul of the tested compound per well in a 96-well plate for 24 hours before the enzyme assay for […].). […]
4.2.7. Bax activation assay
Bring all reagents, except the human Bax-α Standard, to room temperature for at least 30 minutes prior to opening. The human Bax-α Standard solution should not be left at room temperature for more than 10 minutes. All standards, controls and samples should be run in duplicate. Refer to the Assay Layout Sheet to determine the number of wells to be used and put any remaining wells with the desiccant back into the pouch and seal the ziploc. Store unused wells at 4 °C. Pipet 100 μL of Assay Buffer into the S0 (0 pg/mL standard) wells. Pipet 100 μL of Standards #1 through #6 into the appropriate wells. Pipet 100 μL of the Samples into the appropriate wells. Tap the plate gently to mix the contents. Seal the plate and incubate at room temperature on a plate shaker for 1 hour at ~500 rpm. Empty the contents of the wells and wash by adding 400 μL of wash solution to every well.
Repeat the wash 4 more times for a total of 5 washes. After the final wash, empty or aspirate the wells and firmly tap the plate on a lint free paper towel to remove any remaining wash buffer. Pipet 100 μL of yellow Antibody into each well, except the Blank. Seal the plate and incubate at room temperature on a plate shaker for 1 hour at ~500 rpm. Empty the contents of the wells and wash by adding 400 μL of wash solution to every well. Repeat the wash 4 more times for a total of 5 washes.
After the final wash, empty or aspirate the wells and firmly tap the plate on a lint free paper towel to remove any remaining wash buffer. Add 100 μL of blue Conjugate to each well, except the Blank.
Seal the plate and incubate at room temperature on a plate shaker for 30 minutes at ~500 rpm. Empty the contents of the wells and wash by adding 400 μL of wash solution to every well. Repeat the wash 4 more times for a total of 5 washes. After the final wash, empty or aspirate the wells and firmly tap […]
the plate on a lint free paper towel to remove any remaining wash buffer. Pipet 100 μL of Substrate Solution into each well. Incubate for 30 minutes at room temperature on a plate shaker at ~500 rpm.
Pipet 100 μL Stop Solution to each well. Blank the plate reader against the Blank wells, read the optical density at 450 nm. Calculate the average net Optical Density (OD) bound for each standard and sample by subtracting the average Blank OD from the average OD for each standard and sample.
Using linear graph paper, plot the Average Net OD for each standard versus Bax concentration in each standard. Approximate a straight line through the points. The concentration of Bax in the unknowns can be determined by interpolation. […]
Remove plate cover and empty the wells. […]
Incubate the microwell strips at room temperature (18° to 25°C) for about 15 minutes, if

[10] = target: EGFR (Homo sapiens, UniProt P00533); assay: EGFR inhibitory assay (EGFR-TK assay)
[11] = target: HER2 (Homo sapiens, UniProt P04626); assay: HER2 inhibitory assay (ADP-Glo kinase assay)
Sequence of HER2 (P04626 676-1255 limits assumed): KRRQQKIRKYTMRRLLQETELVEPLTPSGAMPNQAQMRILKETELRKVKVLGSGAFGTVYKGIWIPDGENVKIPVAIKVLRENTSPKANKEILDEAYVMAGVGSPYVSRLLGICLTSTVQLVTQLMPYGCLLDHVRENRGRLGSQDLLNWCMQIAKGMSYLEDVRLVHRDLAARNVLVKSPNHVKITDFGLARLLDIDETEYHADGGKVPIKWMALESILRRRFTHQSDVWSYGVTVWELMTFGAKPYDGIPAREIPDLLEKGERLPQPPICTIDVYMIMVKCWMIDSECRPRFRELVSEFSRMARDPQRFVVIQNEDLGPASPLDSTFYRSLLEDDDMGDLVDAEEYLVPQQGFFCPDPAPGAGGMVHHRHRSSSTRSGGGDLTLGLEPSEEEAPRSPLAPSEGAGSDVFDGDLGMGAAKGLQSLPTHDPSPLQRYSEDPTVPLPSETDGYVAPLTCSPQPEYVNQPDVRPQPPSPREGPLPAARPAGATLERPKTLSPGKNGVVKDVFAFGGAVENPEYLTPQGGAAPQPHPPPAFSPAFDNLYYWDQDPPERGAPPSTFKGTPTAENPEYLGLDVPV

Sequence of EGFR (P00533 669-1210): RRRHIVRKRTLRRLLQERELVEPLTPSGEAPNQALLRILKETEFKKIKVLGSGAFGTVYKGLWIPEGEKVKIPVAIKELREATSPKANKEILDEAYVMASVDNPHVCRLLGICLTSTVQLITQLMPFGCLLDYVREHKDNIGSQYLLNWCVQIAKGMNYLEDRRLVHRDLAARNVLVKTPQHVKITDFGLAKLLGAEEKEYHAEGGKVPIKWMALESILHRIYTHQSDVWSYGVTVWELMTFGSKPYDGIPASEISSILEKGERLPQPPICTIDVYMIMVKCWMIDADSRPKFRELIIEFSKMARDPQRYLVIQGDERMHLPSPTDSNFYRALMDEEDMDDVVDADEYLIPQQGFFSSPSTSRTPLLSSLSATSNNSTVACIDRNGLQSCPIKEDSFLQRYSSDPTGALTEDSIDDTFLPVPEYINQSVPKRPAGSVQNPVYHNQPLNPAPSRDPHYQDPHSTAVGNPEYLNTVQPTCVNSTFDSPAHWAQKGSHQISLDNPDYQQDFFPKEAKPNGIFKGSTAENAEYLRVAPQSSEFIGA

O=c1[nH]c2ccccc2c(O)c1/C=N/c1nc(-c2ccncc2)n[nH]1 [Compound 3e, (E)-4-hydroxy-3-(((3-(pyridin-4-yl)-1H-1,2,4-triazol-5-yl)imino)methyl)quinolin-2(1H)-one]
viability at 96 h, 50 µM [1]: 86%
IC50 [2]: 32 ± 3 nM
IC50 [3]: 31 ± 3 nM
IC50 [4]: 34 ± 3 nM
IC50 [5]: 34 ± 3 nM
GI50 [6]: 33 nM
Caspase-3 Conc. [7]: 587 ± 5 pg/mL
Caspase-3 Fold change [7]: 9
Caspase-8 Conc. [8]: 1.65 ± 0.20 ng/mL
Caspase-8 Fold change [8]: 19
Bax Conc. [9]: 316 ± 3 pg/mL
Bax Fold change [9]: 35
IC50 [10]: 79 ± 5 nM
IC50 [11]: 39 ± 2 nM

O=c1[nH]c2ccccc2c(O)c1C=Nc1ccc(NS(=O)(=O)c2ncccn2)cc1 [Compound 5a, N-(4-(((4-hydroxy-2-oxo-1,2-dihydroquinolin-3-yl)methylene)amino)phenyl) pyrimidine-2-sulfonamide]
viability at 96 h, 50 µM [1]: 87%
IC50 [2]: 25 ± 2 nM
IC50 [3]: 23 ± 2 nM
IC50 [4]: 26 ± 2 nM
IC50 [5]: 26 ± 2 nM
GI50 [6]: 25 nM
Caspase-3 Conc. [7]: 710 ± 6 pg/mL
Caspase-3 Fold change [7]: 11
Caspase-8 Conc. [8]: 1.70 ± 0.15 ng/mL
Caspase-8 Fold change [8]: 21
Bax Conc. [9]: 350 ± 3 pg/mL
Bax Fold change [9]: 39
IC50 [10]: 71 ± 4 nM
IC50 [11]: 31 ± 2 nM
